Test systems include NCI-H23 lung; OVCAR-3 ovarian; SF-295 CNS; HL-60(TB) leukemia; SK-MEL-28 melanoma; NCI-H460 lung; CAKI-1 renal; ACHN renal; LOX IMVI melanoma.
What all share (test): NCI anticancer screen, dose series, 48 h

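Test compounds were applied to cells in 96-well plates for 48 hours at 5 doses. GI50 marks 50% less growth. At the TGI there is no net growth.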

As for `COC(=O)C(=O)C(C(=O)C(=O)Nc1cccc(C(C)=O)c1)c1nc2ccccc2[nH]c1=O` (configuration not stated), the TGI in the experiment on NCI-H23 lung, in the experiment with OVCAR-3 ovarian, with SF-295 CNS, in the experiment with HL-60(TB) leukemia, in the experiment on SK-MEL-28 melanoma and in the experiment on NCI-H460 lung was > 100 µM in each case. The TGI in the experiment with CAKI-1 renal, in the experiment with ACHN renal and with LOX IMVI melanoma was > 100 µM throughout.
Regarding `O=c1cccc(C2CC(CO)C3CCCCN3C2)[nH]1` (configuration not stated), the TGI in the experiment on NCI-H23 lung, in the experiment with OVCAR-3 ovarian, with SF-295 CNS, in the experiment with HL-60(TB) leukemia, in the experiment with SK-MEL-28 melanoma and with NCI-H460 lung was > 100 µM in each case. In addition, the TGI in the experiment with CAKI-1 renal, in the experiment with ACHN renal and in the experiment with LOX IMVI melanoma was > 100 µM throughout.
`Cc1cccc(C)c1NC(=O)C1C(=O)N(c2c(C)cccc2C)C(=O)/C1=N\NC(N)=S` (configuration not stated): the TGI in the experiment on NCI-H23 lung, in the experiment on OVCAR-3 ovarian, with SF-295 CNS, with HL-60(TB) leukemia, in the experiment with SK-MEL-28 melanoma and in the experiment with NCI-H460 lung was > 100 µM each time. Besides, the TGI in the experiment on ACHN renal was > 100 µM.
In the case of `CC[O-].CC[O-].O=S(=O)([O-])c1ccc([O-])c2ncccc12.O=S(=O)([O-])c1ccc([O-])c2ncccc12.[Ti+4]`, the GI50 with NCI-H23 lung is > 100 µM; in the experiment with OVCAR-3 ovarian, 47.6 µM; in the experiment on SF-295 CNS it was > 100 µM; in the experiment on HL-60(TB) leukemia it was 40.9 µM; with SK-MEL-28 melanoma, > 100 µM; in the experiment on CAKI-1 renal, > 100 µM. Also, the GI50 in the experiment on ACHN renal was 59.1 µM; in the experiment with LOX IMVI melanoma it was 28.3 µM. Further, the TGI in the experiment on NCI-H23 lung, in the experiment on OVCAR-3 ovarian, with SF-295 CNS, in the experiment on HL-60(TB) leukemia, with SK-MEL-28 melanoma and with CAKI-1 renal was > 100 µM each time. In addition, the TGI with ACHN renal and with LOX IMVI melanoma was > 100 µM each time.
For `Cn1c2c(c3ccc(Cl)c(Cl)c31)C(C#N)C1(CCNCC1)NC2=O` (configuration not stated), the GI50 with NCI-H23 lung was 2.72 µM; in the experiment on OVCAR-3 ovarian, 1.42 µM; with SF-295 CNS it was 2.46 µM; in the experiment with HL-60(TB) leukemia it was 1.96 µM; in the experiment with SK-MEL-28 melanoma, 0.841 µM; in the experiment with NCI-H460 lung it was 1.71 µM. Further, the GI50 in the experiment on CAKI-1 renal is 0.384 µM; with ACHN renal it was 1.82 µM; in the experiment on LOX IMVI melanoma, 1.54 µM. Moreover, the TGI with NCI-H23 lung is 9.22 µM; with OVCAR-3 ovarian, 2.9 µM; in the experiment with SF-295 CNS, 8.1 µM; with HL-60(TB) leukemia, 3.91 µM; in the experiment with SK-MEL-28 melanoma, 2.37 µM; in the experiment on NCI-H460 lung, 3.79 µM. The results for the TGI in the experiment on CAKI-1 renal, in the experiment with ACHN renal and in the experiment on LOX IMVI melanoma were 1.75 µM, 5.79 µM and 3.39 µM, respectively.
For `Cc1ccc(-c2cc(-c3ccccc3)c(C#N)c(=O)n2C2OC(CO)C(O)C(O)C2O)cc1` (configuration not stated), the TGI in the experiment on NCI-H23 lung, with OVCAR-3 ovarian, in the experiment with SF-295 CNS, in the experiment with HL-60(TB) leukemia, in the experiment on SK-MEL-28 melanoma and in the experiment with NCI-H460 lung was > 100 µM in each case. Also, the TGI in the experiment with ACHN renal and with LOX IMVI melanoma was > 100 µM each time.
In the case of `COc1ccc(/C=C2\CCCC(C(NO)c3ccc(OC)cc3)C2=NO)cc1` (configuration not stated), the TGI is > 100 µM in the experiment on NCI-H23 lung; > 100 µM in the experiment on OVCAR-3 ovarian; > 100 µM in the experiment with SF-295 CNS; 43.1 µM in the experiment with HL-60(TB) leukemia; 95.3 µM with SK-MEL-28 melanoma; > 100 µM with NCI-H460 lung. For the same molecule, the TGI in the experiment with CAKI-1 renal and in the experiment on ACHN renal was > 100 µM throughout.
Turning to `OCCNc1ncnc2c1ncn2Cc1cccc(COc2cccc(OCc3cccc(Cn4cnc5c(NCCO)ncnc54)c3)c2)c1`, the GI50 with OVCAR-3 ovarian was 17.6 µM; with SF-295 CNS, 13 µM; with HL-60(TB) leukemia it was 10.6 µM; in the experiment with SK-MEL-28 melanoma, 14.6 µM; in the experiment on NCI-H460 lung, 15.1 µM; with CAKI-1 renal, 18.4 µM. Besides, the GI50 in the experiment with ACHN renal was 20.7 µM; with LOX IMVI melanoma, 14.5 µM. In addition, the TGI with OVCAR-3 ovarian was determined as 36.7 µM; in the experiment on SF-295 CNS, 31.8 µM; with HL-60(TB) leukemia, 29.3 µM; in the experiment with SK-MEL-28 melanoma, 28.4 µM; in the experiment on NCI-H460 lung, 29 µM; with CAKI-1 renal, 42.1 µM. The TGI was 43.2 µM in the experiment on ACHN renal and 30.1 µM in the experiment on LOX IMVI melanoma.
`N.N.N.N.O=C([O-])C(Cl)Cl.O=C([O-])C(Cl)Cl.[Co+3].[O-][Cl+3]([O-])([O-])[O-]`: the GI50 in the experiment on NCI-H23 lung, in the experiment on OVCAR-3 ovarian, with SF-295 CNS, in the experiment with HL-60(TB) leukemia, in the experiment with SK-MEL-28 melanoma and in the experiment with NCI-H460 lung was > 100 µM throughout. The GI50 in the experiment with ACHN renal and in the experiment on LOX IMVI melanoma was > 100 µM in each case. Besides, the TGI in the experiment with NCI-H23 lung, in the experiment on OVCAR-3 ovarian, in the experiment on SF-295 CNS, with HL-60(TB) leukemia, in the experiment on SK-MEL-28 melanoma and in the experiment on NCI-H460 lung was > 100 µM each time. Also, the TGI in the experiment with ACHN renal and in the experiment with LOX IMVI melanoma was > 100 µM throughout.

Source of the values: PubChem BioAssay (NCI).
